Read-outs that look alike come from different tables or passages of the source.
Assays:
[1] = molecular target: T1, Wolbachia LeuRS (full-length) (Wolbachia sp. subsp. Brugia malayi, UniProt Q5GS31); assay: Reactivation rate (half-life of inhibition) of Wolbachia LeuRS after dilution of inhibitor complex; format: biochemical; settings: time for LeuRS to recover 50% of its activity after 200-fold dilution
Experimental: Wolbachianinfection model.
All reactions were performed in […]

[2] = test system: W. pipientis (wAlbB) in C6/36 cells; assay: A·WOL anti-Wolbachia screening assay in infected C6/36 (wAlbB) insect cells; format: cell-based, Wolbachia pipientis; settings: for EC50: Wolbachia pipientis, 168 h, 7 days
Source text: To identify active compounds against Wolbachia, we carried out a high-throughput screening assay by testing a library of 202 benzoxaborole compounds in a host-cell model of Wolbachia infection ([5], [18]), which yielded an 18% hit rate. […] The screening in cells was combined with activity experiments (aminoacylation) performed with recombinant full-length Wolbachia LeuRS protein, which were used to calculate the half-maximum inhibitory concentration (IC50) for the most interesting compounds identified in the cell screening. Thus, this yielded compounds with both good anti-Wolbachian in vitro activity and in vivo efficacy, with representative compounds shown in table S1. […] Moreover, the potent in vitro activity of Cmpd9 translated in very good in cellulo efficacy (EC50 = 90 nM) in the Wolbachia infection model (Fig. 1, D and E, and table S1).
The efficacy of compounds, determined as EC50 against Wolbachia in infected host cells, was determined through the anti-Wolbachia consortium’s (A·WOL) routine screening assay as described previously ([18], [27], [29]). […] Compounds were incubated for 7 days with 2000 cells per well on a 384-well plate (CellCarrier-384 Ultra, PerkinElmer) in Leibovitz media (Life Technologies) supplemented with 20% fetal bovine serum (FBS, Thermo Fisher Scientific), 2% tryptose phosphate broth (Sigma-Aldrich), and 1% nonessential amino acids (Sigma-Aldrich). The endpoint readout utilized DNA staining of both the host cell nuclei and intracellular Wolbachia (SYTO 11) combined with a high content imaging system (Operetta, PerkinElmer) and analyzed using the associated Harmony software through a cytoplasm texture analysis. Stock solutions at 10 mM of chemical compounds were prepared in dimethyl sulfoxide (DMSO). Chemical compounds were provided by chemical manufactures (ChemPartner and Anacor Pharmaceuticals), and quality control was verified by NMR spectroscopy (^1H-NMR) and liquid chromatography coupled to mass spectrometry. […]
†The half-maximum effective concentrations (EC50) were calculated in cells infected with Wolbachia […]

[3] = molecular target: Wolbachia LeuRS (residues 219 to 418) (Wolbachia sp. subsp. Brugia malayi, UniProt Q5GS31); assay: Thermal shift assay (DSF), Wolbachia LeuRS editing domain; format: binding; settings: wild-type Wolbachia LeuRS construct, in the presence of AMP, vs free protein
Experimental: The thermal shift assays (TSAs) were performed using a qPCR CFX96 (Bio-Rad) with the FRET scan mode. Samples were prepared in a TSA buffer containing 50 mM Hepes (pH 7.5) and 150 mM NaCl. Each well contained 2 μl of samples as prepared for the crystallization trials, 18 μl of TSA buffer, and 20 μl of 10× SYPRO orange (S6650, Thermo Fisher Scientific).

[4] = ITC titration of compound into AMP in the absence of protein (adduct formation); format: binding; settings: no protein
Experimental: To quantitatively assess the formation of the adenosine-based inhibitor adducts, we performed ITC experiments by titrating Cmpd9 into AMP in the absence of protein (fig. S3D). […]
spectra of AMP/ATP alone or in equimolar (5 mM) mixtures with Cmpd6. A zoomed-in view on the aromatic NMR signals of AMP/ATP is shown. Upon addition of the compounds, the NMR signals of the aromatic groups of AMP/ATP split into an additional two peaks corresponding to the two adducts formed. (C) Spontaneous cyclization of Cmpd6 with ATP/AMP leading to the formation of two diastereomer adducts based on the pseudo symmetry of the ribose. For convenience, adducts with an exo-ribose in panel c) are denote as ty pe “a”, and those with endo-ribose as adducts of type “b”. (D) Isothermal Titration Calorimetry experiment with Cmpd9 injected into AMP leading to the formation of adducts by Cmpd9.
The experiment was performed in triplicate.

Wolbachia LeuRS = Wolbachia LeuRS (Wolbachia sp. subsp. Brugia malayi, UniProt Q5GS31); settings: ITC; for binding to Wolbachia LeuRS (in words): in the absence of AMP; for -T∆S / ∆G / ∆H: in the presence of AMP
Source text: We designed constructs of the Wolbachia LeuRS editing domain (fig. S1), which bear the putative drug-binding pocket, for expression and purification of recombinant proteins. Two constructs gave soluble and well-behaving proteins that were used for biophysical and structural studies: a construct encoding for residues 219 to 418, herein named Wolbachia LeuRS; and another construct named Wolbachia LeuRS D1, for which part of an insertion specific to Wolbachia LeuRS (herein denoted as i1) and predicted to be highly disordered was partially deleted (354 to 377) (fig. S1). […] To quantitatively assess the affinity of these compounds to Wolbachia LeuRS, isothermal titration calorimetry (ITC) experiments were carried out.
ITC measurements were performed on a MicroCal iTC200 (GE Healthcare, PA) at 25°C. Wolbachia LeuRS samples were previously dialyzed into the ITC buffer 50 mM Hepes-KOH, pH 7.5, 30 mM KCl, 30 mM MgCl2, and 5 mM β-mercaptoethanol and adjusted to a final concentration of 70 μM. […] A typical ITC experiment consisted of 26 injections of 1.5 μl every 180 s at a stirring speed of 750 rpm. The raw data were processed using MicroCal PEAQ-ITC (v. 1.0.0.1259, Malvern) and Microcal Origin for ITC (v. 7.0).
Thermodynamic parameters were calculated from fitting the binding isotherms to a one-site binding site and
independent model. Experiments were done at least in duplicates.
All the experiments were performed in the presence of AMP, which acts as a surrogate of ATP or tRNALeu
terminal adenosine (Ade76).

[5] = molecular target: T1, Wolbachia LeuRS (full-length); assay: biochemical
Experimental: The full-length Wolbachia LeuRS construct corresponds to residues 1 to 865 of Wolbachia sp. Brugia malayi (Uniprot Q5GS31).
The IC50 values were calculated using a similar approach as described earlier ([19], [20]). Briefly, Wolbachia full-length LeuRS, total E. coli tRNA crude extract (Roche), and compounds were preincubated for 20 min in 50 mM Hepes-KOH (pH 8.0), 30 mM MgCl2, 30 mM KCl, 0.02% (wt/vol) bovine serum albumin, and 1 mM dithiothreitol with 20 μM [^14C]leucine (306 mCi/mmol; PerkinElmer) at 30°C. Reactions were started by the addition of 4 mM ATP and, at specific times, tRNA was precipitated by the addition of 10% (w/v) trichloroacetic acid (TCA), recovered by filtration (Millipore Multiscreen; MSHAN4B50), washed with 5% TCA (w/v), and counted by a liquid scintillation counter (Wallac). […] The reactivation rates (T½) were determined by measuring the time required for Wolbachia LeuRS to recover 50% of its activity. […] LeuRS inhibitor complexes were then diluted 200-fold, and enzyme activity was determined at various time intervals, as described before. Compound reactivation rates were determined by fitting the LeuRS activity reactivation curves to a one-phase exponential decay model (GraphPad Prism).
*The half-maximum inhibitory concentrations (IC50) and half-life inhibition times (T ½) were calculated from aminoacylation assays with recombinant protein and tRNA (see methods). […]

T1 sequence (Q5GS31 whole entry): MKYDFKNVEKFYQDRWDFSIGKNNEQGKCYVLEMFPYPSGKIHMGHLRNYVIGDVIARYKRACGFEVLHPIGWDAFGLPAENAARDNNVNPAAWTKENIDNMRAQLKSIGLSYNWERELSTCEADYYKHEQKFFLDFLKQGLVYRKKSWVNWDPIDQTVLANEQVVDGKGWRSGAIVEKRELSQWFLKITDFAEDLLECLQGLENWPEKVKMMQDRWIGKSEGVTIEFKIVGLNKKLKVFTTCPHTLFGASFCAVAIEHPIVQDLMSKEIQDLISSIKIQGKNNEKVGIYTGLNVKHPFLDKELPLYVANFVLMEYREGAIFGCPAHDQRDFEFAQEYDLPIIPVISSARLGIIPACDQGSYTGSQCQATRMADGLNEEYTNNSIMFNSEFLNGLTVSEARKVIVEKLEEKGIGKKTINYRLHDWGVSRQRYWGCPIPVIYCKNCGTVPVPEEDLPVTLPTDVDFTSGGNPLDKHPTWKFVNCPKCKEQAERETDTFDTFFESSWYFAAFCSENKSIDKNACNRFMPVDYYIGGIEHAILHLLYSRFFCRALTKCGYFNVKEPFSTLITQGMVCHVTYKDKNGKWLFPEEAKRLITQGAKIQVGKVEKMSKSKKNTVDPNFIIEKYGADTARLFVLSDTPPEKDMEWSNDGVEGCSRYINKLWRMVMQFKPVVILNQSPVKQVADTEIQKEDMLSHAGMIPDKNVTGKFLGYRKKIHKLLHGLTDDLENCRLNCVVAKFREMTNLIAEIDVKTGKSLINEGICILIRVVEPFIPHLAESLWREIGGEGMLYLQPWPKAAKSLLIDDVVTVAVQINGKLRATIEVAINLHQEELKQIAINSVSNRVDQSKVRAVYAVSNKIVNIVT
Wolbachia LeuRS, sequence (Q5GS31 219-418): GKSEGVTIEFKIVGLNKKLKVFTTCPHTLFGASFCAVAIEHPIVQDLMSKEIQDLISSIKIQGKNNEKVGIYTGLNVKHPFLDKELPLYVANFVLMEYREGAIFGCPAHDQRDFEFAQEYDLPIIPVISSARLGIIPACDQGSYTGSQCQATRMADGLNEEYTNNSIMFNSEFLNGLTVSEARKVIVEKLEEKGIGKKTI
Wolbachia LeuRS (residues 219 to 418), sequence (Q5GS31 219-418): as above

Compound | T ½ (half-life inhibition time, reactivation rate) [1] [h] | EC50 ([2]; C6/36 (wAlbB) cells, read-out: Efficacy in Infected Host EC50) [µM] | increase of the melting temperature ∆Tm [3] [°C] | binding isotherm with AMP (in words) ([4]; compared with Cmpd9 into AMP) | binding to Wolbachia LeuRS (in words) (Wolbachia LeuRS) | -T∆S (Wolbachia LeuRS) [kcal/mol] | ∆G (Wolbachia LeuRS) [kcal/mol] | ∆H (Wolbachia LeuRS) [kcal/mol] | IC50 [5] [µM] | Wolbachia load in host cells (in words) ([2]; 9 μM for 7 days, C6/36 (wAlbB)) | EC50 ([2]; Wolbachia infection model, C6/36 (wAlbB), read-out: in cellulo efficacy EC50) [µM] | Kd ([4]; compound titrated into AMP, one-site binding model) [µM]
NC[C@H]1OB(O)c2c(OCCC(=O)Nc3nccs3)ccc(Br)c21 [Cmpd6] | 0.0183 | > 10 | 13 | equivalent binding isotherm | did not bind | -4.48 | -10.08 | -5.60 | 0.06 |  |  | 
CN(CCCOc1ccc(Br)c2c1B(O)O[C@@H]2CN)Cc1ccccc1 [Cmpd9] | 3.77 |  | 13 |  | did not bind | -5.31 | -11.24 | -5.93 | 0.19 | Reduction of Wolbachia load | 0.09 | 1000
CCCC(N)C(=O)NC1C(O)C(CO)OC1n1cnc2c(N)ncnc21 (stereo not shown) [Nva2AA, reference compound] |  |  |  |  |  | 1.79 | -5.94 | -7.73 |  |  |  | 

From PMC11235159, “Targeting a microbiota Wolbachian aminoacyl-tRNA synthetase to block its pathogenic host” (Science Advances, 2024)
